Patent US7091351B2, “Vanadium compounds for treating cancer” (Parker Hughes Institute, priority 1998, dated 2006)
pIC50: −log10 of the molar value.

Assays:
Type in all cases: cell-based, human
U373 glioblastoma cells = assay: MTT cytotoxicity assay of vanadocenes, U373 cells; conditions: 24 h
Description: (§1) Human testicular cancer cell lines, Tera-2 (embryonal carcinoma) and Ntera-2 (pluripotent embryonal carcinoma) were obtained from the American Type Culture Collection (ATCC) (Rockeville, Md.) and propagated in T-25, T-75, or T-150 cm^2 tissue culture flasks (Corning Corp., Corning, N.Y.) in McCoy's 5A medium and Dulbecco's modified Eagle's medium respectively. Both media were supplemented with 10% fetal calf serum (FCS), 4 mM glutamine, 100 U/ml penicillin G, and […] streptomycin sulfate. All tissue culture reagents were obtained from Life Technologies Inc. (GIBCO-BRL), Gaithersburg, Md. Cell lines were cultivated for a minimum of two passages after thawing prior to experimentation. Other cell lines that were used in this study were the human B-lineage acute lymphoblastic leukemia (ALL) cell line NALM-6. Uckun, F. M., Evans, W. E., Forsyth, C. J., Waddick, K. G., Tuel-Ahlgren, L., Chelstrom, L. M., Burkhardt, A., Bolen, J., Myers, D. E. Biotherapy of B-cell precursor leukemia by targeting genistein to CD19-associated tyrosine kinase. Science (Washington DC) 267:886–91, 1995; T-lineage ALL cell line MOLT-3, Waurzyniak, B., Shneider, E. A., Tumer, N., Yanishevski, Y., Gunther, R., Chelstrom, L., Wendorf, H., Myers, D. E., Irvin, J. D., Messinger, Y., Ek, O., Zeren, T., Chandan-Langlie, M., Evans, W. E., Uckun, F. M. In vivo toxicity, pharmacokinetics, and antileukemic activity of TXU (anti-CD7)-pokeweed antiviral protein immunotoxin. Clinical Cancer Research 3:881–890, 1997; AML cell line HL-60, Perentesis, J. P., Waddick, K. G., Bendel, A. E., Shao, Y., Warman, B. E., Chandan-Langlie, M., and Uckun, F. M. Induction of apoptosis in multi-drug resistant andradiation-resistant acute myeloid leukemia cells by a recombinant fusion toxin directed against the granulocyte macrophage colony stimulating factor receptor. Clin. Cancer Res. 3:347–355, 1997; breast cancer cell lines MDA-MB-231 and BT-20, Uckun, F. M., Narla, R. K., Jun, X., Zeren, T., Venkatachalam, T., Waddick, K. G., Rostostev, A., Myers, D. E. Cytotoxic activity of EGF-genstein against breast cancer cells. Clin. Cancer Res. 4:901–912, 1998; glioblastoma cell lines U87 and U373, Narla, R. K., Liu, X., Myers, D. E., and Uckun, F. M. 4-(3′-Bromo-4′hydroxylphenyl)-amino-6,7-dimethoxyquinazoline (WHI-P154): A novel quinazoline derivative with potent cytotoxic activity against human glioblastoma cells. Clin. Cancer Res. 4:1405–1414, 1998.
(§2) MTT (3-[4,5-dimethyl thiazol-2-yl]-2,5-diphenyltetrazolium bromide)-based colorimetric assays were used for evaluation of the cytotoxicity of vanadocene compounds. Mosmann, T. Rapid colorimetric assay for cellular growth and survival: application to proliferation and cytotoxicity assays. J. Immunol. Methods, 65: 55–63, 1983. Briefly, cells were harvested with 0.125% (w/v) trypsin-0.02% EDTA (GIBCO-BRL) from exponential-phase maintenance cultures and centrifuged (300 g×5 min). After suspension and counting, cells were dispensed within triplicate 96-well tissue culture plates in 100 μl volumes. After 24 h incubation, the culture medium was discarded and replaced with 100 μl of fresh medium containing serial two-fold dilutions of drugs in medium to yield 1.9 μM to 250 μM. All compounds were reconstituted in DMSO to a concentration of 100 mM, and the stock solution was made fresh for each experiment. Control wells consisted of medium containing 0.25% of DMSO alone were used for solvent control. Culture plates were then incubated for 24 h before adding 10 μl of MTT solution (5 mg/ml in PBS) to each well. Wells containing only medium and MTT were used as controls for each plate. The tetrazolium/formazan reaction was allowed to proceed for 4 h at 37° C., and then 100 μl of the solubilization buffer (10% sodium dodecyl sulfate in 0.1% HCl) were added to all wells and mixed thoroughly to dissolve the dark blue formazan crystals. […]

[1] = test system: Tera-2 testicular cancer cells; assay: MTT cytotoxicity assay of vanadocenes, TERA-2 cells; conditions: 24 h, 1.9-250 μM
Description: as §1, §2

[2] = test system: NALM-6 B-lineage acute lymphoblastic leukemia cells; assay: MTT cytotoxicity assay of vanadocenes, NALM-6 cells; conditions: 24 h
Description: as §1
as §2, with “control.” for “control. Culture plates were then incubated for 24 h before adding 10 μl of MTT solution (5 mg/ml in PBS) to each well. Wells containing only medium and MTT were used as controls for each plate. The tetrazolium/formazan reaction was allowed to proceed for 4 h at 37° C., and then 100 μl of the solubilization buffer (10% sodium dodecyl sulfate in 0.1% HCl) were added to all wells and mixed thoroughly to dissolve the dark blue formazan crystals.”

[3] = test system: Tera-2 testicular cancer cells; assay: Flow cytometric TUNEL apoptosis assay, TERA-2 cells; conditions: 24 h, TUNEL-positive nuclei
Description: (§3) A flow cytometric two-color terminal […] transferase (TdT)-mediated digoxigenin-uridine triphosphate (dUTP) nick-end labeling assay (TUNEL) was employed to detect apoptotic nuclei. Gavrieli, Y., Sherman, Y., Ben-Sasson, S. A. Identification of programmed cell death in situ via specific labeling of nuclear DNA fragmentation. J. Cell Biol., 119: 493–501, 1992. Exponentially growing cells (10^6/ml) were incubated in DMSO alone (0.1%) or treated with 100 μM each of the 16 vanadocenes (VDB, VDC, VMDC, VDI, VDA, VDCN, VDOCN, VDSCN, VDSeCN, VDT, VDCO, VDFe, VD(acac), VDH, VD(dpy), and VD(dtc) in 0.1% DMSO for 24 h. Cells were washed in PBS, fixed in 4% paraformaldehyde in PBS for 15 min on ice. Following two washings in PBS, they were permeabilized with 0.1% Triton X-100 in 0.1% sodium citrate for 2 min on ice, and washed twice in PBS. Labeling of exposed 3′-hydroxyl (3′-OH) ends of fragmented nuclear DNA was performed using TdT and fluorescein isothiocyanate (FITC)-conjugated dUTP according to the manufacturer's recommendations (Boehringer Mannheim, Indianapolis, Ind.). Cells were counterstained with 5 μg/ml PI. Control samples included: (i) untreated cells; (ii) cells incubated with the reaction mixture without the TdT enzyme. Cells were analyzed with a FACS Calibur flow cytometer (Becton Dickinson, Mountain View, Calif.). Relative DNA content (PI) was detected with band-pass filter 585/42, and dUTP incorporation (FITC) was detected with band-pass filter 530/30. Fluorescence was compensated for in the acquisition software using single-label control samples. Data were acquired in listmode, gated to 10,000 events per sample, and analyzed with the use of CELLQuest software program (Becton Dickinson). […] Vanadocene-induced apoptosis is shown by an increase in the number of cells staining with FITC-dUTP. The M1 and M2 gates were used to demarcate non-apoptotic and apoptotic PI-counterstained cell populations, respectively. TUNEL assays were performed using two testicular cell lines Tera-2 and Ntera-2 following exposure to each of the 16 vanadocenes. In other experiments, MC540 binding (as an early marker of apoptosis) and PI permeability (as a marker of advanced stage apoptosis) were simultaneously measured in human cancer cells 24 hours after exposure to vanadocenes, as previously described. Uckun, F. M., Narla, R. K., Jun, X., Zeren, T., Venkatachalam, T., Waddick, K. G., Rostostev, A., Myers, D. E. Cytotoxic activity of EGF-genstein against breast cancer cells. Clin. Cancer Res. 4:901–912, 1998. Vassilev, A., Ozer, Z., Navara, C., Mahajan, S., and Uckun, F. M. Bruton's tyrosine kinase as an inhibitor of the Fas/CD95 death-inducing signaling complex. J. Biol. Chem. 274:1646–56, 1999. Whole cells were analyzed using a FACStar Plus flow cytometer (Becton Dickinson, San Jose, Calif.). All analyses were done using 488 nm excitation from an argon laser. MC540 and PI emissions were split with a 600 nm short pass dichroic mirror and a 575 nm band pass filter was placed in front of one photomultiplier tube to measure MC540 emission and a 635 nm band pass filter was used for PI emission.

[4] = test system: Ntera-2 testicular cancer cells; assay: Flow cytometric TUNEL apoptosis assay, NTERA-2 cells; conditions: 24 h, TUNEL-positive nuclei
Description: as §3

[5] = test system: Ntera-2 testicular cancer cells; assay: MTT cytotoxicity assay of vanadocenes, NTERA-2 cells; conditions: 24 h, 1.9-250 μM
Description: as §1, §2

[6] = test system: MDA-MB-231 breast cancer cells; assay: MC540 binding / PI permeability apoptosis assay, MDA-MB-231; conditions: 100 μM, 24 hours
Description: (§4) A flow cytometric two-color terminal […] transferase (TdT)-mediated digoxigenin-uridine triphosphate (dUTP) nick-end labeling assay (TUNEL) was employed to detect apoptotic nuclei. Gavrieli, Y., Sherman, Y., Ben-Sasson, S. A. Identification of programmed cell death in situ via specific labeling of nuclear DNA fragmentation. J. Cell Biol., 119: 493–501, 1992. […] Cells were analyzed with a FACS Calibur flow cytometer (Becton Dickinson, Mountain View, Calif.). Relative DNA content (PI) was detected with band-pass filter 585/42, and dUTP incorporation (FITC) was detected with band-pass filter 530/30. Fluorescence was compensated for in the acquisition software using single-label control samples. Data were acquired in listmode, gated to 10,000 events per sample, and analyzed with the use of CELLQuest software program (Becton Dickinson). […] In other experiments, MC540 binding (as an early marker of apoptosis) and PI permeability (as a marker of advanced stage apoptosis) were simultaneously measured in human cancer cells 24 hours after exposure to vanadocenes, as previously described. […] Whole cells were analyzed using a FACStar Plus flow cytometer (Becton Dickinson, San Jose, Calif.). […]

[7] = test system: HL60 acute myeloid leukemia cells; assay: MC540 binding / PI permeability apoptosis assay, HL-60; conditions: 100 μM, 24 hours
Description: as §4

U87 glioblastoma cells = assay: MC540 binding / PI permeability apoptosis assay, U87; conditions: 100 μM, 24 hours
Description: as §4

[8] = test system: BT-20 breast cancer cells; assay: MC540 binding / PI permeability apoptosis assay, BT-20; conditions: 100 μM, 24 hours
Description: as §4

Structure (SMILES) | pIC50 (U373 glioblastoma cells) | pIC50 [1] | pIC50 [2] | % Apoptosis at 100 μM TERA-2 [3] | % Apoptosis at 100 μM NTERA-2 [4] | pIC50 [5] | cells with dual MC540/PI fluorescence (advanced stage apoptosis), MDA-MB-231 [6] [%] | total percentage of apoptotic cells (early and advanced stage), MDA-MB-231 [6] [%] | cells with dual MC540/PI fluorescence (advanced stage apoptosis), HL-60 [7] [%] | total percentage of apoptotic cells (early and advanced stage), HL-60 [7] [%] | cells with dual MC540/PI fluorescence (advanced stage apoptosis), U87 (U87 glioblastoma cells) [%] | total percentage of apoptotic cells (early and advanced stage), U87 (U87 glioblastoma cells) [%] | cells with dual MC540/PI fluorescence (advanced stage apoptosis), BT-20 [8] [%] | total percentage of apoptotic cells (early and advanced stage), BT-20 [8] [%]
[I-].[I-].[V+2].c1cc[cH-]c1.c1cc[cH-]c1 [VDI, VCp2I2] | 5.30 | 3.66 | 4.74 | 72 (71, 73) % | 57 (46, 69) % | 3.69 |  |  |  |  |  |  |  | 
[Br-].[Br-].[V+2].c1cc[cH-]c1.c1cc[cH-]c1 [VDB, VCp2Br2] | 4.21 | 3.81 | 4.77 | 84 (83, 86) % | 93 (93, 94) % | 4.15 |  |  |  |  |  |  |  | 
C1=C[CH]([V+2][CH]2C=CC=C2)C=C1.[N-]=C=[Se].[N-]=C=[Se] [VDSeCN, VCp2(NCSe)2] | 5.70 | 5.05 | 5.52 | 78 (75, 80) % | 99.6 ± 0.2 (N = 4) % | 4.66 | 67 | 72 | 51 | 98 | 79 | 90 | 40 | 61
[N-]=[N+]=[N-].[N-]=[N+]=[N-].[V+2].c1cc[cH-]c1.c1cc[cH-]c1 [VDA, VCp2(N3)2] | 4.29 | 4.15 | 4.80 | 85 (78, 92) % | 85 (78, 93) % | 4.17 |  |  |  |  |  |  |  | 
